Results reported in patent publication US20120156150A1, “Composition for Improving Skin Condition Comprising Extract from Black Tea as Active Ingredient” (Keimyung University Industry Academic Cooperation Foundation, priority 2010, published 2012).
Marks after values point to notes of the source that are not given here. Blank lines part the entries; values can stand above or below the compound they belong to.

How the values were obtained:
gp100 protein = assay: Immunohistochemical HMB-45 staining (gp100); assay type: in vivo, brown guinea pig; details: week 4; 2% sample
Experimental: (§1) After dehydration, followed by washing with xylene and embedding in paraffin, 4 μm-thick samples were prepared. The sample was adhered on a coating slide and stained using the BenchMark XT automated immunostainer (Ventana Medical Systems, USA) after removing paraffin. […] Following reaction with S-100 and HMB-45 primary antibodies diluted to 1:100, the sample was washed with reaction buffer, reacted with biotin for 20 minutes, and then reacted with streptavidin for 25 minutes. After coloring with diaminobenzidine (DAB) using the Ventana detection kit), the sample was stained for observation using an optical microscope.

[1] = Electron donating ability (DPPH radical scavenging, Blois' method); details: 800 μg/mL
Experimental: DPPH radical scavenging effect was measuring according to the Blois' method (1958). […] After adding 1 mL of the test sample in a test tube, 4×10^−4 M DPPH (4 mL) was added. The resulting mixture was shaken vigorously, allowed to stand in warm water of 60° C. for 10 seconds, and absorbance was measured at 525 nm. BHT was used as the positive control group. Then, free radical scavenging activity of each solution was calculated as “% inhibition” according to the following equation: % inhibition=[1−(Asample/Ablank)]×100, wherein Ab1ank is the absorbance of the control group (excluding the test sample) and Asample is the absorbance of the test compound.

[2] = test system: UVB-induced hyperpigmentation; assay: Melanin index (mexameter), brown guinea pig; assay type: in vivo; details: 2% sample topical
Experimental: Three brown guinea pigs weighing 450-550 g were purchased from Oriental Yeast Co. Ltd. (OYC; Japan). The animals were accustomed to the test environment for 7 days. The animals were housed in individual cages under the environment of 22±1° C. and 50±5% relative humidity with 12-hour alternate dark/light cycles. Feed and water were given ad libitum.
UVB-induced hyperpigmentation was elicited on the back of the brown guinea pig according to the method of Choi et al. (2004). After anesthetizing the guinea pig with ketamine hydrochloride (100 mg/kg BW), 24 separate areas (φ 12 mm) on the skin of the back was exposed to UVB radiation (302-nm sunlamp). The areas were exposed to UVB of 500 mJ/cm^2 for 3 consecutive weeks, once a week. That is, a total of 1,500 mJ/cm^2 of UVB was radiated.
On day 10 after the final UVB radiation, 30 μL (1.06 mg/cm^2/day) of 2% HQ, EGCG, GT, WT or BT was topically applied for 4 weeks to the hyperpigmented areas (9 areas per each) using a micropipette, twice a day, and 4 days a week. Saline was used as control, and propylene glycol:ethanol:water (5:3:2) was used as vehicle control.
Before and after the topical application of the test sample, change in melanin pigmentation was measured 3 times in a non-invasive manner using a mexameter, once a week. The degree of pigmentation was analyzed by averaging the measured values.

[3] = test system: melanin pigmentation in the epithelium; assay: Fontana-Masson's silver staining, melanin-pigmented area; assay type: in vivo, brown guinea pig; details: week 4; 2% sample
Experimental: In order to observe the morphological change of the skin tissue using an optical microscope, the extracted skin tissue was fixed in a 10% neutral formalin solution for 12 hours and washed with flowing water. After dehydrating in 70, 80, 95 and 100% ethanol followed by washing with xylene, the tissue was embedded in paraffin and 4 μm-thick samples were prepared using a microtome.
Paraffin was removed from the sample using xylene. After staining the sample for 60 minutes in silver nitrate solution at 56° C. according to the Masson's method (1928), followed by washing, color-toning 0.2% gold chloride solution and washing again, the sample was kept in 5% sodium thiosulfate solution for 5 minutes. Subsequently, after washing the sample once again, followed by counterstaining in nuclear fast red solution, dehydration in 95%, 95%, 100% and 100% alcohol and washing with xylene, the sample was put in Canada balsam for microscopic observation. The percentage of the melanin-pigmented area was calculated using an image analysis software.

S-100 protein = assay: Immunohistochemical S-100 staining; assay type: in vivo, brown guinea pig; details: week 4; 2% sample
Experimental: as §1

tyrosinase = tyrosinase (Homo sapiens, UniProt P14679); details: Briganti et al. 2003; cited from earlier work
Sequence of tyrosinase (P14679 19-529, species assumed): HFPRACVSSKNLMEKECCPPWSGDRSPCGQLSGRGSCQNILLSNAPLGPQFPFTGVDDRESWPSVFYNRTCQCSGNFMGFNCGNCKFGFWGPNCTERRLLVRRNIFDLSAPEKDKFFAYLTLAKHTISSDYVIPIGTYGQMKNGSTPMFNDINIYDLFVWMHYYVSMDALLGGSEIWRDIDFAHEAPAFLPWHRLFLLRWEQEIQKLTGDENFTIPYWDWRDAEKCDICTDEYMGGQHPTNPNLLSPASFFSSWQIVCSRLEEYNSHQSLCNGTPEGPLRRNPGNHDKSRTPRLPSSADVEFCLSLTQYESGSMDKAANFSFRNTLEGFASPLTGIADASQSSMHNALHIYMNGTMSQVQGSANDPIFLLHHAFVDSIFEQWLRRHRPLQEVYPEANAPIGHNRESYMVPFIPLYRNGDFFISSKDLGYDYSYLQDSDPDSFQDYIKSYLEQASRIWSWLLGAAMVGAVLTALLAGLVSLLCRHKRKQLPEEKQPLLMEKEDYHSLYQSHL

hyperpigmentation = details: Ortonne and Passeron 2005; cited from earlier work
UVB-induced wrinkles = assay: Measurement of wrinkles (skin replica, Visioline); assay type: in vivo, SKH-1 hairless mouse; details: RA 0.01%, GT/WT/BT 2%
Experimental: (§2) 7-week-old SKH-1 hairless mice was purchased from Charles River (Japan). The animals were accustomed to the test environment for 1 week. The animals were housed in individual cages under the environment of 22±1° C. and 50±5% relative humidity with 12-hour alternate dark/light cycles. Feed and water were given ad libitum. The animals were grouped into 7 groups as follows, with 7 mice per each:
(§3) The mouse was subjected to UVB radiation (302 nm sunlamp) on the back for […], 3 times a week. The radiation amount was 1 minimal erythemal dose (MED: 60 mJ/cm^2) on the 1st week, 2 MED (120 mJ/cm^2) on the 2nd week, 3 MED (180 mJ/cm^2) on the 3rd week, and 4 MED (240 mJ/cm^2) on the 4th to 12th weeks. The radiation with 4 MED was carried out once a week during the test period.
(§4) After inducing wrinkle formation, 200 μL of saline or the sample was applied for 4 weeks, 5 times a week (2%: 0.26 g/kg BW/day). RA was applied together with polyethylene glycol at a concentration of 0.01% for 4 weeks, 5 times a week, twice a day, with 200 μL per each.
Skin replica was prepared from the back skin of the hairless mouse using the Silflo impression material (Flexico, England). The roughness of the skin was assessed using Visioline. Total wrinkle area (mm^2) was calculated.

[4] = Organ weight (spleen, thymus); assay type: in vivo, SKH-1 hairless mouse
Experimental: After extracting the skin, a portion of the skin was fixed in 10% neutral-buffered formalin solution for histological analysis and the remainder was kept in a refrigerator (−80° C.) for analysis of MMPs. Thymus and spleen extracts were washed with saline and weighed on an electronic scale after removing water with filer paper.

UVB-irradiated skin [5] = assay: Skin water content (corneometer), SKH-1 hairless mouse; assay type: in vivo; details: for water content of the skin: RA 0.01%, GT/WT/BT 2%
Experimental: as §2, §3, §4
(§5) Skin erythema index, water content and transepidermal water loss (TEWL) were measured in a non-invasive manner using a mexameter, a corneometer and a tewameter, once a week during the test period.

[6] = Water and feed intake, feed efficiency and body weight; assay type: in vivo, SKH-1 hairless mouse
Experimental: Water and feed intake of the test animal was measured once a week. Body weight was measured between 09:00 and 10:00 in the morning, once a week during the test period.

Hematological analysis = assay type: in vivo, SKH-1 hairless mouse; details: RA 0.01%, GT/WT/BT 2%
Experimental: Blood sample was added to a blood collection tube containing the anticoagulant K2EDTA and mixed for more than 5 minutes. Then, concentration of erythrocytes, leukocytes, neutrophils, eosinophils, basophils, lymphocytes, monocytes, platelets and hemoglobin and hematocrit were measured using a hematological analyzer.

UVB-irradiated skin [7] = assay: Transepidermal water loss (TEWL), SKH-1 hairless mouse; assay type: in vivo; details: for TEWL: RA 0.01%, GT/WT/BT 2%
Experimental: as §2, §3, §4, §5

UVB-irradiated skin [8] = assay: Skin erythema index, SKH-1 hairless mouse; assay type: in vivo; details: for skin erythema index: RA 0.01%, GT/WT/BT 2%
Experimental: as §2, §3, §4, §5

MMP-3 = assay: RT-PCR, MMP-3 mRNA in skin tissue; assay type: in vivo, SKH-1 hairless mouse; details: RA 0.01%, GT/WT/BT 2%
Experimental: 50 mg of the sample from the mouse back skin kept at low temperature was homogenized with 1 mL of Trizol. The homogenized sample was incubated at room temperature for 5 minutes after adding 200 μL of chloroform, and centrifuged at 15,000 rpm and 4° C. for 10 minutes. After collecting and transferring the supernatant to a fresh tube and adding 500 μL of isopropyl alcohol, the sample was centrifuged at 4° C. and 15,000 rpm for 15 minutes. The resulting RNA pellet was washed with 1 mL of 70% ethanol and centrifuged at 4° C. and 15,000 rpm for 15 minutes. The RNA pellet finally obtained by removing the supernatant was diluted with diethylpyrocarbonate (DEPC) and quantitated with 1.8<optical density (OD; A260/A280)<2.0 using a white light/UV transilluminator. cDNA was synthesized from total RNA at a concentration of 0.1-1 μg/μL using the Cycle Script RT PreMix (dT20) kit. The cDNA synthesis was performed by 12 cycles of 1 minute at 30° C. and 4 minutes at 50° C. in 205 μL of DEPC, and the sample was heated at 95° C. for 5 minutes. Polymerase chain reaction (PCR) was carried out in 15.2 μL of sterilized water containing 2 μL of template and […] of primer using the Accupower™ PCR PreMix kit. The reaction was carried out for 35 cycles. […] DNA band density was calculated using the Kodak Gel Logic 100 image analysis system.

Compound: Oc1ccc(O)cc1 [HQ, Hydroquinone]
% of Melanin pigment (Table 5, gp 100 protein) (gp100 protein): 4.4 ± 0.8^c %
Melanin pigment (area; Table 5, gp 100 protein) (gp100 protein): 469 ± 111 μm^2
area of gp 100 protein expression, decrease by, as compared to the group C (gp100 protein): 68%
Electron donating ability [1]: 93%
melanin index ([2]; week 0): 724.8 ± 22.8^a AU
melanin index ([2]; week 1): 702.9 ± 24.4^a* AU
melanin index ([2]; week 2): 673.9 ± 26.1^c AU
melanin index ([2]; week 3): 636.7 ± 25.8^b AU
melanin index ([2]; week 4): 583.0 ± 28.0^b AU
melanin index decreased by, as compared to the group C ([2]; week 4): 17%
% of melanin pigment [3]: 9.5 ± 1.5^bc %
Melanin pigment area [3]: 1163 ± 268 μm^2
melanin pigmented area decreased by, as compared to the control group [3]: 53%
% of S-100 Protein (S-100 protein): 4.3 ± 0.5^ab %
S-100 Protein area (S-100 protein): 511 ± 89 μm^2
area of S-100 protein expression, decrease by, as compared to the control groups (S-100 protein): 69%
decreases tyrosinase activity up to (tyrosinase): up to 90%
improves hyperpigmentation in % of cases (hyperpigmentation): 14-70%

Spleen absolute weight ([4]; RA 0.01%, GT/WT/BT 2%): 0.136 ± 0.015^a g
Spleen relative weight ([4]; RA 0.01%, GT/WT/BT 2%): 0.475 ± 0.053^a g/100 g body weight
Thymus absolute weight ([4]; RA 0.01%, GT/WT/BT 2%): 0.019 ± 0.005^ab g
Thymus relative weight ([4]; RA 0.01%, GT/WT/BT 2%): 0.067 ± 0.01^ab g/100 g body weight
organ weight relative to the normal group ([4]; p <0.05): significantly lower
Basophil (Hematological analysis): 0.004 ± 0.04^a k/μl
Eosinophil (Hematological analysis): 0.050 ± 0.05^a k/μl
HCT (Hematological analysis): 43.442 ± 0.87^b %
Hb (Hematological analysis): 13.800 ± 0.18^b g/dl
Lymphocyte (Hematological analysis): 6.462 ± 0.34^c k/μl
Monocyte (Hematological analysis): 0.204 ± 0.06^b k/μl
Neutrophil (Hematological analysis): 2.340 ± 0.39^cd k/μl
Platelet (Hematological analysis): 517.80 ± 16.44^b k/μl
RBC (Hematological analysis): 4.274 ± 0.17^b M/μl
WBC (Hematological analysis): 9.114 ± 0.55^b k/μl
Compound: CC1=C(/C=C/C(C)=C/C=C/C(C)=C/C(=O)O)C(C)(C)CCC1 [RA, retinoic acid]
decreased wrinkle area as compared to the control group (UVB-induced wrinkles): 49%
water content of the skin (UVB-irradiated skin [5]; week 1): 57.99 ± 7.31^b AU
water content of the skin (UVB-irradiated skin [5]; week 2): 65.70 ± 5.75^c AU
water content of the skin (UVB-irradiated skin [5]; week 3): 71.42 ± 5.82^cd AU
water content higher as compared to the control group (UVB-irradiated skin [5]; week 4): 207%
water content of the skin (UVB-irradiated skin [5]; week 4): 88.59 ± 4.87^cd AU
Food efficiency ratio ([6]; (Body weight gain/Food intake) × 100): −0.94 ± 1.71^a %
Body weight gain ([6]; RA 0.01%, GT/WT/BT 2%): −0.050 ± 0.09^a g/day
Food intake ([6]; RA 0.01%, GT/WT/BT 2%): 5.36 ± 1.06^a g/day
Water intake ([6]; RA 0.01%, GT/WT/BT 2%): 8.57 ± 1.75^b Ml/day
water intake as compared to the control group ([6]; p <0.05): remarkably higher water intake
TEWL (UVB-irradiated skin [7]; week 1): 24.16 ± 4.49^c** g/m^2/h
TEWL (UVB-irradiated skin [7]; week 2): 18.33 ± 4.85^b** g/m^2/h
TEWL (UVB-irradiated skin [7]; week 3): 18.76 ± 3.66^c g/m^2/h
TEWL lower as compared to the control group (UVB-irradiated skin [7]; week 4): 58%
TEWL (UVB-irradiated skin [7]; week 4): 16.90 ± 3.59^b g/m^2/h
skin erythema index (UVB-irradiated skin [8]; week 1): 314.38 ± 17.33^c AU
skin erythema index (UVB-irradiated skin [8]; week 2): 301.10 ± 16.60^b AU
skin erythema index (UVB-irradiated skin [8]; week 3): 294.43 ± 13.14^b AU
skin erythema index lower as compared to the control group (UVB-irradiated skin [8]; week 4): 32%
skin erythema index (UVB-irradiated skin [8]; week 4): 282.64 ± 15.50^b AU
expression level of MMP-3 mRNA lower as compared to the control group (MMP-3): 77%
